pIC50: −log10 of the molar value.
What was measured:
[1] = tested on: OVCAR-8; assay: Antiproliferative activity against human OVCAR8 cells; format: functional, cell-based
[2] = molecular target: hERG (KCNH2) (Homo sapiens, UniProt Q12809); assay: Inhibition of ERG in human HEK293 cells at 3 uM at -80 mV holding potential by whole-cell patch clamp assay relative to control; format: cell-based; details: HEK293 cells expressing ERG
[3] = Microsomal stability in monkey liver microsomes assessed as compound remaining at 100 ug/ml in presence of NADPH measured at 1.5 hrs by LC/MS analysis; format: ADME, Macaca mulatta, Microsome; details: rhesus monkey, read-out: Stability
[4] = tested on: LNCaP; assay: Antiproliferative activity against human LNCAP cells; format: functional, cell-based
[5] = molecular target: RAC-beta serine/threonine-protein kinase (Homo sapiens, UniProt P31751); assay: Inhibition of human Akt2 by mobile shift assay
[6] = molecular target: RAC-gamma serine/threonine-protein kinase (Homo sapiens, UniProt Q9Y243); assay: Inhibition of Akt3 (unknown origin) by mobile shift assay
[7] = molecular target: Protein kinase C (PKC); assay: Inhibition of PKC (unknown origin); format: protein assay, Homo sapiens
[8] = molecular target: Rho-associated protein kinase 1 (Homo sapiens, UniProt Q13464); assay: Inhibition of human ROCK1 by mobile shift assay
[9] = Half-life in ICR mouse at 40 mg/kg, ig measured up to 48 hrs by LC-MS/MS analysis; format: ADME, organism-based; details: in vivo, po
[10] = Cmax in ICR mouse at 40 mg/kg, ig measured up to 48 hrs by LC-MS/MS analysis; format: ADME, organism-based; parameters: dose 40 mg/kg, route […]; details: in vivo, po
[11] = Clearance in ICR mouse at 40 mg/kg, ig measured up to 48 hrs by LC-MS/MS analysis; format: ADME, organism-based; details: in vivo, po
[12] = AUC (0 to t) in ICR mouse at 40 mg/kg, ig measured up to 48 hrs by LC-MS/MS analysis; format: ADME, organism-based; parameters: time < 48 hr, dose 40 mg/kg, route […]; details: in vivo, po
[13] = AUC (0 to infinity) in ICR mouse at 40 mg/kg, ig measured up to 48 hrs by LC-MS/MS analysis; format: ADME, organism-based; parameters: dose 40 mg/kg, time infinity, route […]; details: in vivo, po
[14] = MRT (0 to infinity) in ICR mouse at 40 mg/kg, ig measured up to 48 hrs by LC-MS/MS analysis; format: ADME, organism-based; details: in vivo, po
[15] = Volume of distribution in ICR mouse at 40 mg/kg, ig measured up to 48 hrs by LC-MS/MS analysis; format: ADME, organism-based; details: in vivo, po
[16] = Protein binding in mouse plasma at 300 ng/ml after 8 hrs by equilibrium dialysis; format: ADME, cell-free; details: read-out: PPB (converted)
[17] = Stability in mouse plasma at 100 ug/ml after 1 hr by LC/MS analysis; format: ADME, cell-free; details: read-out: Stability
[18] = Cmax in Sprague-Dawley rat at 40 mg/kg, ig measured up to 24 hrs by LC-MS/MS analysis; format: ADME, organism-based; parameters: dose 40 mg/kg, route […]; details: in vivo, po
[19] = Clearance in Sprague-Dawley rat at 40 mg/kg, ig measured up to 24 hrs by LC-MS/MS analysis; format: ADME, organism-based; details: in vivo, po
[20] = MRT (0 to infinity) in Sprague-Dawley rat at 40 mg/kg, ig measured up to 24 hrs by LC-MS/MS analysis; format: ADME, organism-based; details: in vivo, po
[21] = Volume of distribution in Sprague-Dawley rat at 40 mg/kg, ig measured up to 24 hrs by LC-MS/MS analysis; format: ADME, organism-based; details: in vivo, po
[22] = Oral bioavailability in ICR mouse at 40 mg/kg measured up to 48 hrs by LC-MS/MS analysis; format: ADME, organism-based; details: in vivo
[23] = tested on: SK-OV-3; assay: Induction of apoptosis in human SKOV3 cells at 0.4 uM by FACS based flow cytometric analysis (reference value: 7.63%); format: functional
[24] = tested on: SK-OV-3; assay: Induction of apoptosis in human SKOV3 cells at 2 uM by FACS based flow cytometric analysis (reference value: 7.63%); format: functional
[25] = tested on: SK-OV-3; assay: Induction of apoptosis in human SKOV3 cells at 10 uM by FACS based flow cytometric analysis (reference value: 7.63%); format: functional
[26] = Toxicity in ICR mouse assessed as induction of intestinal hemorrhage at 80 to 160 mg/kg, ig; format: organism-based; details: in vivo, po
[27] = tested on: SK-OV-3; assay: Antitumor activity against human SKOV3 cells xenografted in BALB/c nude mouse assessed as tumor growth inhibition at 40 mg/kg, po BID for 21 days; format: functional; details: SK-OV-3, po, 504 h, read-out: TGI
[28] = Toxicity in BALB/c nude mouse xenografted with human SKOV3 cells assessed as reduction in mouse survival at 40 mg/kg, po BID for 21 days; format: organism-based; details: in vivo, 504 h
[29] = Drug level in tumor of human SKOV3 cells xenografted in BALB/c nude mouse at 50 mg/kg administered for 7 consecutive days; format: ADME, organism-based, Neoplasm; details: in vivo
[30] = molecular target: Sodium channel protein type 9 subunit alpha (Homo sapiens, UniProt Q15858); assay: Inhibition of Nav1.7 (unknown origin)
[31] = molecular target: ATP-sensitive inward rectifier potassium channel 1 (Homo sapiens, UniProt P48048); assay: Inhibition of Kir1.1 (unknown origin) at 3 uM relative to control
[32] = molecular target: Potassium voltage-gated channel subfamily A member 2 (Homo sapiens, UniProt P16389); assay: Inhibition of Kv1.2 (unknown origin) at 3 uM relative to control
[33] = molecular target: Potassium voltage-gated channel subfamily A member 10 (Homo sapiens, UniProt Q16322); assay: Inhibition of Kv1.8 (unknown origin) at 3 uM relative to control
[34] = molecular target: Potassium voltage-gated channel subfamily A member 3 (Homo sapiens, UniProt P22001); assay: Inhibition of Kv1.3 (unknown origin) at 3 uM relative to control
[35] = molecular target: Potassium voltage-gated channel subfamily A member 4 (Homo sapiens, UniProt P22459); assay: Inhibition of Kv1.4 (unknown origin) at 3 uM relative to control
[36] = molecular target: Potassium voltage-gated channel subfamily A member 6 (Homo sapiens, UniProt P17658); assay: Inhibition of Kv1.6 (unknown origin) at 3 uM relative to control
[37] = molecular target: Potassium/sodium hyperpolarization-activated cyclic nucleotide-gated channel 4 (Homo sapiens, UniProt Q9Y3Q4); assay: Inhibition of HCN4 (unknown origin) at 3 uM relative to control
[38] = Toxicity in ICR mouse assessed as reduction in organ to brain weight ratio of thymus at 80 to 160 mg/kg, ig once daily for 7 days; format: organism-based; details: in vivo, po, 168 h
[39] = Toxicity in BALB/c nude mouse xenografted with human SKOV3 cells assessed as effect on body weight at 60 to 80 mg/kg, po administered once daily for 21 days; format: organism-based; details: in vivo, 504 h
[40] = molecular target: RAC-alpha serine/threonine-protein kinase (Homo sapiens, UniProt P31749)
Description: Inhibition of human Akt1 expressed in Escherichia coli using STK Substrate 2-biotin as substrate incubated for 1 hr by HTRF assay

[41] = tested on: HCT-116; assay: cells; details: Homo sapiens, HCT-116, 72 h

Chain of Potassium voltage-gated channel subfamily A member 2 (P16389 whole entry): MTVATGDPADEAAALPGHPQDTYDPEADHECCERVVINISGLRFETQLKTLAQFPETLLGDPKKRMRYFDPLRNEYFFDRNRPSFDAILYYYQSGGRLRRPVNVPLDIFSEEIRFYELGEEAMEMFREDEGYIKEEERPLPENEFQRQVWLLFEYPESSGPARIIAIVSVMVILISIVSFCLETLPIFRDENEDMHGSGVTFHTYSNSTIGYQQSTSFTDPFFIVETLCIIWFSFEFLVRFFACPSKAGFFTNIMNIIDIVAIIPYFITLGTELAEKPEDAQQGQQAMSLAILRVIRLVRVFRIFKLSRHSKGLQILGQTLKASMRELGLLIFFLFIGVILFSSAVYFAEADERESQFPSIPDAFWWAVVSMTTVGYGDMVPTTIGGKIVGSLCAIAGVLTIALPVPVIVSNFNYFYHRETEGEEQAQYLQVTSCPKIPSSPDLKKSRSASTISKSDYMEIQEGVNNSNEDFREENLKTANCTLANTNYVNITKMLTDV
Chain of ATP-sensitive inward rectifier potassium channel 1 (P48048 whole entry): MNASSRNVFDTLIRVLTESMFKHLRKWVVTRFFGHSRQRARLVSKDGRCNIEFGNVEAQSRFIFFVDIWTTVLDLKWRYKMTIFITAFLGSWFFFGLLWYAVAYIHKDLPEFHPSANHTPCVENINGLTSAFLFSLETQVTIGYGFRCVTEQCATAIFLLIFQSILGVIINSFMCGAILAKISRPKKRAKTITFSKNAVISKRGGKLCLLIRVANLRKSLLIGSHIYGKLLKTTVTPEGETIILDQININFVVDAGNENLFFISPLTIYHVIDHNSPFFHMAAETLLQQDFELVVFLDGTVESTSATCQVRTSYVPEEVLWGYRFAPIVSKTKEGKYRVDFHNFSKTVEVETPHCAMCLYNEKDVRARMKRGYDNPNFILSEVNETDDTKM
Chain of Potassium voltage-gated channel subfamily A member 10 (Q16322 whole entry): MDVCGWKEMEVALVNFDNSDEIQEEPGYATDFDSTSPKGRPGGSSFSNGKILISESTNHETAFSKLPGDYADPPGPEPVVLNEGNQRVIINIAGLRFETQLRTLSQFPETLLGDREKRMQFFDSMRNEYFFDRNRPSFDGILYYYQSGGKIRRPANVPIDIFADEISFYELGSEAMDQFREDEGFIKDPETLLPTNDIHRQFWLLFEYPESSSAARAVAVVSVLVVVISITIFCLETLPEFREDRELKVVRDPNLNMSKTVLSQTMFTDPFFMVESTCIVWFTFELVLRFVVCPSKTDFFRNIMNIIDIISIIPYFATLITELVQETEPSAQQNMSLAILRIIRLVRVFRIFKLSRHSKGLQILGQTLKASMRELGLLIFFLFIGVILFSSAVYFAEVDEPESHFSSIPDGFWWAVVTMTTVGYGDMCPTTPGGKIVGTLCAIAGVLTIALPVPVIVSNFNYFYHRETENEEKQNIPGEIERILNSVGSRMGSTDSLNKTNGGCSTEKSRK
Chain of Sodium channel protein type 9 subunit alpha (Q15858 whole entry): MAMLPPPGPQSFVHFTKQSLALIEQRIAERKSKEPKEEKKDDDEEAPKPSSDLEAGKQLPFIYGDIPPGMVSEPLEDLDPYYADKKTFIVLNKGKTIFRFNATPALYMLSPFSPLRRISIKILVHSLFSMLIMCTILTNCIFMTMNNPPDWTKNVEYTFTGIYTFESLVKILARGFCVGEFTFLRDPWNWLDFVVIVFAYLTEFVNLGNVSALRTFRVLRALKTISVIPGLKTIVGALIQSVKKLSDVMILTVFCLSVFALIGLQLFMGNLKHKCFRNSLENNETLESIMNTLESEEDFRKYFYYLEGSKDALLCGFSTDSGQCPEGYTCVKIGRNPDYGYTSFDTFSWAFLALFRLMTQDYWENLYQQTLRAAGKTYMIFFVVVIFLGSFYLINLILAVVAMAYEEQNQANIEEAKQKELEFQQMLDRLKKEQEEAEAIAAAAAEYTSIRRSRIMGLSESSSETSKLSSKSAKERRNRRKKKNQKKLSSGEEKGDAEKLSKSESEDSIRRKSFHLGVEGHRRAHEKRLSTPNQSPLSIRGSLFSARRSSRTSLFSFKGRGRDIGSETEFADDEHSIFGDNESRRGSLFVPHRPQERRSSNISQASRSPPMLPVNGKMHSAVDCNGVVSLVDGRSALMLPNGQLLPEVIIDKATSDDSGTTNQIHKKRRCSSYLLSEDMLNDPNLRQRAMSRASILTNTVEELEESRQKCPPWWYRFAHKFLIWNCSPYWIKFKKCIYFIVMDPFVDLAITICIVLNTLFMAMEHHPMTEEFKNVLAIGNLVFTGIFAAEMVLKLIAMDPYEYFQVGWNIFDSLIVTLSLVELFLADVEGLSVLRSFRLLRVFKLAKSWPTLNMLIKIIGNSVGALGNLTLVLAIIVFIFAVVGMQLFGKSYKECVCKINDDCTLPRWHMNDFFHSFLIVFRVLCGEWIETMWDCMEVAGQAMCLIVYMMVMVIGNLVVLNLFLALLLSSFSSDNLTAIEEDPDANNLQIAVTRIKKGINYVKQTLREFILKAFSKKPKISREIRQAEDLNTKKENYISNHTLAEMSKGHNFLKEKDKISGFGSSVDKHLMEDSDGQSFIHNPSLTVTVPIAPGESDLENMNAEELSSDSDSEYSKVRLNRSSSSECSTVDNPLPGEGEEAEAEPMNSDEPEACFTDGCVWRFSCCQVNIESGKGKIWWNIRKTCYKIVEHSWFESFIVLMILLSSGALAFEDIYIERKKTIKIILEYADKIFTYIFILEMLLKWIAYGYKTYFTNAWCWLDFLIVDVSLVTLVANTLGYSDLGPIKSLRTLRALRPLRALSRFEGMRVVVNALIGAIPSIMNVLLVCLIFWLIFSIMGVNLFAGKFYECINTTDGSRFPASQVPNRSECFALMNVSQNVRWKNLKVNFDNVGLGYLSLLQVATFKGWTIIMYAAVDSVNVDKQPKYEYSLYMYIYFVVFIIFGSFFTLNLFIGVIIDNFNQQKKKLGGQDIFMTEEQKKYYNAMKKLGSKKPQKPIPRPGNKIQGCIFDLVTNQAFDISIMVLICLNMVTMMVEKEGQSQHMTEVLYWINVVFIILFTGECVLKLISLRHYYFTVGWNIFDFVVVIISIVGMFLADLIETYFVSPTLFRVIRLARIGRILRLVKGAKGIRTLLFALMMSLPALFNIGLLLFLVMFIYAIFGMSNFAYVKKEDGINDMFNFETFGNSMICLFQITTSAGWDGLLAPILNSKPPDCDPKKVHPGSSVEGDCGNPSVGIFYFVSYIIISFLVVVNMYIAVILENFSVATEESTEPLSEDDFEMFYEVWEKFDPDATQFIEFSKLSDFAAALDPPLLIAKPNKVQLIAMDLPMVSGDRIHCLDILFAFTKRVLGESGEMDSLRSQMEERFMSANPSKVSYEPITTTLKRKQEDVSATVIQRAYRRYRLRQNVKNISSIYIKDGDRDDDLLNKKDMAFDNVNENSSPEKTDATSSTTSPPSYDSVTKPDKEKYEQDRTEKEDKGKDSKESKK
Chain of Potassium voltage-gated channel subfamily A member 3 (P22001 whole entry): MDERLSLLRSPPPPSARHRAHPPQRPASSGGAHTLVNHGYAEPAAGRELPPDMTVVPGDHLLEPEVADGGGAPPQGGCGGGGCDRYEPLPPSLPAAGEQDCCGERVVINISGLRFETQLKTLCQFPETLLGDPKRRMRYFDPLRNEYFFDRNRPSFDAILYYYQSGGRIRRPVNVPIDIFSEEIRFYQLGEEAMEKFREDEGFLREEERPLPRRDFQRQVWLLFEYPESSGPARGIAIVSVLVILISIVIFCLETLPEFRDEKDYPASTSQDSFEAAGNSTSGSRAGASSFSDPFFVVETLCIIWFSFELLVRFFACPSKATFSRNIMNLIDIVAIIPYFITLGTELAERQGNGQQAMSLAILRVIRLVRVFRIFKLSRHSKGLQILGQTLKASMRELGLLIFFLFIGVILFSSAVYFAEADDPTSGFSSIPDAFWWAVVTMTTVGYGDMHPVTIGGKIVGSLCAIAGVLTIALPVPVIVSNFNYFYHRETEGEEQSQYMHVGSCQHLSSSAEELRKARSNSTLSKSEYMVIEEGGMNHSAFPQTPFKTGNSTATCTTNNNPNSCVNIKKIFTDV
Chain of Potassium voltage-gated channel subfamily A member 6 (P17658 whole entry): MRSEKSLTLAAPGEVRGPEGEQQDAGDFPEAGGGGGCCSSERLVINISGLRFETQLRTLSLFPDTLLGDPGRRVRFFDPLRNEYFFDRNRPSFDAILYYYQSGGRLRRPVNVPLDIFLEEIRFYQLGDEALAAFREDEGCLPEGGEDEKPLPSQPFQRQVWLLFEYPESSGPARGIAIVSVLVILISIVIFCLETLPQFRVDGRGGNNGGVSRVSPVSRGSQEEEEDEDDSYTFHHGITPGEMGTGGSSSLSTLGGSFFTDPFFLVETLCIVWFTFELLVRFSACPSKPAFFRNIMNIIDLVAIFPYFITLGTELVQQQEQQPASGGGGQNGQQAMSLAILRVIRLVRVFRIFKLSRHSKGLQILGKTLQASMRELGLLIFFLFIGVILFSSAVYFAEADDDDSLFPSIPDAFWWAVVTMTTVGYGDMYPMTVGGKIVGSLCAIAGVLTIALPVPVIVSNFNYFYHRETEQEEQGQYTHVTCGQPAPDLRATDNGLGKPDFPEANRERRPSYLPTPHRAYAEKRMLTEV
Chain of RAC-alpha serine/threonine-protein kinase (P31749 whole entry): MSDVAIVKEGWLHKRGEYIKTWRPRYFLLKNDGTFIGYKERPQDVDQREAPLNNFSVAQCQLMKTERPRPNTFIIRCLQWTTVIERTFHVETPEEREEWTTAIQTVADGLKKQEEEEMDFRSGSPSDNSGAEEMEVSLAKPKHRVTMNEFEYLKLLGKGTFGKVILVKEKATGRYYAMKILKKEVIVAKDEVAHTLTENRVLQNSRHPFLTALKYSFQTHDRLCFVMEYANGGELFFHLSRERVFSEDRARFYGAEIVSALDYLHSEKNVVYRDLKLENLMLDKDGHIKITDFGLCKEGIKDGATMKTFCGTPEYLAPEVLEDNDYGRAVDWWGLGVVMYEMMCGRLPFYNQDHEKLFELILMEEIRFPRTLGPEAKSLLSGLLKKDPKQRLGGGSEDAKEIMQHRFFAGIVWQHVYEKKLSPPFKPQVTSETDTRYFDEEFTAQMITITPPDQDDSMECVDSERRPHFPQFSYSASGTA

In the case of `CNC(=O)C[C@@H]1C[C@@H](c2ccc(F)c(F)c2)[C@H](NC(=O)c2cc(-c3c(Cl)cnn3C)c(Cl)o2)CN1`, the pIC50 [1] was 6.10, the inhibition at 3 µM [2] was 4% and the remaining at 1.5 h, 100 ug/ml [3] was 84%. It also gave a pIC50 [4] of 7.30, a pIC50 [5] of 8.92 and a pIC50 [6] of 8.77. The IC50 [7] was 94 nM, the pIC50 [8] was 7.19 and the half-life [9] was 3.3 h. The Cmax [10] was 3620 ng/mL, the CL/F [11] was 31.7 mL/min/kg and the AUC(0-t) at 48 h [12] was 21100 ng·h/mL. It also gave an AUC(0-inf) [13] of 21200 ng·h/mL, an MRT inf [14] of 5.3 h and a Vd [15] of 9 L/kg. It also gave a fraction unbound at 8 h, 300 ng/ml [16] of 0.07, a remaining at 1 h, 100 ug/ml [17] greater than 99% and a Cmax [18] of 407 ng/mL. For the same compound, the CL/F [19] was 237 mL/min/kg, the MRT inf [20] was 11.4 h and the Vd [21] was 147.2 L/kg. The bioavailability [22] was 48.4%, the Activity [23] was 39.88% and the Activity [24] was 64.22%. For the same compound, the Activity [25] was 79.9%, the Activity [26] was “Toxic” and the inhibition in vivo at 40 mg/kg [27] was 82.5%. For the same compound, the Activity [28] was “Non-Toxic”, the Drug uptake [29] was 560 ng/mL and the “inhibition (INH)” value [30] was “Not Active”. For the same compound, the “inhibition (INH)” value [31] was “Not Active”, the “inhibition (INH)” value [32] was “Not Active” and the “inhibition (INH)” value [33] was “Not Active”. The “inhibition (INH)” value [34] was “Not Active”, the “inhibition (INH)” value [35] was “Not Active” and the “inhibition (INH)” value [36] was “Not Active”. For the same compound, the “inhibition (INH)” value [37] was “Not Active”, the Activity [38] was “Toxic” and the Activity [39] was “Non-Toxic”. For the same compound, the pIC50 [40] was 8.86 and the pIC50 [41] was 5.96.

— ChEMBL document CHEMBL4406807, “Discovery of 3,4,6-Trisubstituted Piperidine Derivatives as Orally Active, Low hERG Blocking Akt Inhibitors via Conformational Restriction and Structure-Based Design” (J Med Chem, 2019)
